Measurements as given in paper PMC7587962, “Evaluation of Cytotoxicity and α-Glucosidase Inhibitory Activity of Amide and Polyamino-Derivatives of Lupane Triterpenoids” (Molecules, 2020).

Columns and labels:
[1] = molecular target: Yeast α-Glucosidase; experiment: Yeast α-glucosidase activity assay; type: biochemical, S. cerevisiae; conditions: pH 6.8, 37 °C, p-nitrophenyl-α-D-glucopyranoside 1 mM; read-out: Yeast α-Glucosidase, IC50 ± SE
Protocol: Taken together, these considerations prompted us to evaluate a series of lupanes with amide function or polyamine chain 11, 12, 16, 18, and 22–26 for α-glucosidase inhibition. Initially, they were screened against α-glucosidase of S. cerevisiae as an accessible and high-throughput model. Confirmatory experiments were performed on isolated rough endoplasmic reticulum vesicles from rat liver, which contain neutral α-glucosidases I and II in a membrane-bound form.
In a 96-well flat transparent plate, the 0.12 U/mL enzyme solution (EC 3.2.1.20, expressed in S. cerevisiae, Sigma #G0660, St. Louis, MO, USA) was incubated with test compounds in 67 mM PBS (pH 6.8) at 37 °C for 5 min. Then, p-nitrophenyl-α-D-glucopyranoside (Sigma #N1377, St. Louis, MO, USA) was added to 1 mM final concentration and an increase in absorbance was recorded for 15 min at 405 nm wavelength with Infinite M200 PRO microplate reader (Tecan, Austria). Test compounds were dissolved in DMSO and diluted to the desired concentration in 67 mM PBS (pH 6.8) supplemented with 0.01% Tween 80 to avoid aggregation. Final DMSO concentration was <0.25% in sample wells, and it was also introduced in control and blank wells. […] Due to the absence of normal distribution of data, a Mann–Whitney U-test was used to determine statistical significance versus enzyme control using GraphPad Prism 8.0.1.

[2] = tested on: SNB-75; set-up: method as in PMID 25405285; conditions: standard drugs used by NCI as control; cited from earlier work
[3] = tested on: RXF 393; set-up: method as in PMID 25405285; conditions: standard drugs used by NCI as control; cited from earlier work
[4] = tested on: LOX IMVI; set-up: method as in PMID 25405285; conditions: standard drugs used by NCI as control; cited from earlier work
[5] = tested on: NCI-H226; set-up: method as in PMID 25405285; conditions: standard drugs used by NCI as control; cited from earlier work
[6] = tested on: MOLT-4; set-up: method as in PMID 25405285; conditions: standard drugs used by NCI as control; cited from earlier work
[7] = tested on: HOP-92; set-up: method as in PMID 25405285; conditions: standard drugs used by NCI as control; cited from earlier work
[8] = tested on: SK-MEL-5; set-up: method as in PMID 25405285; conditions: standard drugs used by NCI as control; cited from earlier work
[9] = tested on: RPMI-8226; set-up: method as in PMID 25405285; conditions: standard drugs used by NCI as control; cited from earlier work
[10] = tested on: MALME-3M; set-up: method as in PMID 25405285; conditions: standard drugs used by NCI as control; cited from earlier work
[11] = tested on: NCI-H460; set-up: method as in PMID 25405285; conditions: standard drugs used by NCI as control; cited from earlier work
[12] = tested on: HCT-15; set-up: method as in PMID 25405285; conditions: standard drugs used by NCI as control; cited from earlier work
[13] = tested on: MCF7; set-up: method as in PMID 25405285; conditions: standard drugs used by NCI as control; cited from earlier work
[14] = tested on: OVCAR-5; set-up: method as in PMID 25405285; conditions: standard drugs used by NCI as control; cited from earlier work
[15] = tested on: SF-295; set-up: method as in PMID 25405285; conditions: standard drugs used by NCI as control; cited from earlier work
[16] = tested on: DU-145; set-up: method as in PMID 25405285; conditions: standard drugs used by NCI as control; cited from earlier work
[17] = tested on: U251; set-up: method as in PMID 25405285; conditions: standard drugs used by NCI as control; cited from earlier work
[18] = tested on: HCT-116; set-up: method as in PMID 25405285; conditions: standard drugs used by NCI as control; cited from earlier work
[19] = tested on: HT29; set-up: method as in PMID 25405285; conditions: standard drugs used by NCI as control; cited from earlier work
[20] = tested on: SNB-19; set-up: method as in PMID 25405285; conditions: standard drugs used by NCI as control; cited from earlier work
[21] = tested on: 786-0; set-up: method as in PMID 25405285; conditions: standard drugs used by NCI as control; cited from earlier work
[22] = tested on: NCI-H522; set-up: method as in PMID 25405285; conditions: standard drugs used by NCI as control; cited from earlier work
[23] = tested on: MDA-MB-435; set-up: method as in PMID 25405285; conditions: standard drugs used by NCI as control; cited from earlier work
[24] = tested on: SR; set-up: method as in PMID 25405285; conditions: standard drugs used by NCI as control; cited from earlier work
[25] = tested on: OVCAR-4; set-up: method as in PMID 25405285; conditions: standard drugs used by NCI as control; cited from earlier work
[26] = tested on: UO-31; set-up: method as in PMID 25405285; conditions: standard drugs used by NCI as control; cited from earlier work
[27] = tested on: OVCAR-3; set-up: method as in PMID 25405285; conditions: standard drugs used by NCI as control; cited from earlier work

## C=C(C)[C@@H]1CC[C@]2(C(=O)NCCNCCNCCN)CC[C@]3(C)[C@H](CC[C@@H]4[C@@]5(C)CCC(=O)C(C)(C)[C@@H]5CC[C@]43C)[C@@H]12 [Compound 11]
[1]
  IC50: 4.84 ± 1.02 µM

## COc1cccc2c1C(=O)c1c(O)c3c(c(O)c1C2=O)C[C@@](O)(C(=O)CO)C[C@@H]3O[C@H]1C[C@H](N)[C@H](O)[C@H](C)O1 [DRB, doxorubicin]
[2]
  GI50: 0.07 µM
[3]
  GI50: 0.1 µM
[4]
  GI50: 0.07 µM
[5]
  GI50: 0.05 µM
[6]
  GI50: 0.03 µM
[7]
  GI50: 0.1 µM
[8]
  GI50: 0.08 µM
[9]
  GI50: 0.08 µM
[10]
  GI50: 0.12 µM
[11]
  GI50: 0.02 µM
[12]
  GI50: 6.46 µM
[13]
  GI50: 0.03 µM
[14]
  GI50: 0.41 µM
[15]
  GI50: 0.1 µM
[16]
  GI50: 0.11 µM
[17]
  GI50: 0.04 µM
[18]
  GI50: 0.08 µM
[19]
  GI50: 0.12 µM
[20]
  GI50: 0.04 µM
[21]
  GI50: 0.13 µM
[22]
  GI50: 0.03 µM
[23]
  GI50: 0.25 µM
[24]
  GI50: 0.03 µM
[25]
  GI50: 0.37 µM
[26]
  GI50: 0.49 µM
[27]
  GI50: 0.39 µM
